Reference: ChEMBL document CHEMBL2346545, “Quinic acid derivatives from Pimpinella brachycarpa exert anti-neuroinflammatory activity in lipopolysaccharide-induced microglia” (Bioorg Med Chem Lett, 2013)
The source made the active and inactive calls. The rule behind the calls is not given here.

What was measured:
[1] = Cytotoxicity against mouse BV2 cells assessed as cell viability at 20 uM by MTT assay; assay type: cell-based, BV-2; details: read-out: Activity
[2] = test system: BV-2; experiment: Anti-neuroinflammatory activity in mouse BV2 cells assessed as inhibition of LPS-induced nitric oxide production […] by Griess assay relative to control; assay type: functional, cell-based
[3] = Reduction of SNP-induced nitrite accumulation at 1 to 10 uM after 180 mins by Griess assay
[4] = target: T1, Nitric oxide synthase, inducible (Mus musculus) (UniProt P29477); experiment: Inhibition of iNOS in LPS-treated mouse BV2 cells assessed as decrease in nitrite level at 1 to 5 uM after 12 hrs by Griess assay; assay type: cell-based; details: BV-2
T1 sequence (whole entry): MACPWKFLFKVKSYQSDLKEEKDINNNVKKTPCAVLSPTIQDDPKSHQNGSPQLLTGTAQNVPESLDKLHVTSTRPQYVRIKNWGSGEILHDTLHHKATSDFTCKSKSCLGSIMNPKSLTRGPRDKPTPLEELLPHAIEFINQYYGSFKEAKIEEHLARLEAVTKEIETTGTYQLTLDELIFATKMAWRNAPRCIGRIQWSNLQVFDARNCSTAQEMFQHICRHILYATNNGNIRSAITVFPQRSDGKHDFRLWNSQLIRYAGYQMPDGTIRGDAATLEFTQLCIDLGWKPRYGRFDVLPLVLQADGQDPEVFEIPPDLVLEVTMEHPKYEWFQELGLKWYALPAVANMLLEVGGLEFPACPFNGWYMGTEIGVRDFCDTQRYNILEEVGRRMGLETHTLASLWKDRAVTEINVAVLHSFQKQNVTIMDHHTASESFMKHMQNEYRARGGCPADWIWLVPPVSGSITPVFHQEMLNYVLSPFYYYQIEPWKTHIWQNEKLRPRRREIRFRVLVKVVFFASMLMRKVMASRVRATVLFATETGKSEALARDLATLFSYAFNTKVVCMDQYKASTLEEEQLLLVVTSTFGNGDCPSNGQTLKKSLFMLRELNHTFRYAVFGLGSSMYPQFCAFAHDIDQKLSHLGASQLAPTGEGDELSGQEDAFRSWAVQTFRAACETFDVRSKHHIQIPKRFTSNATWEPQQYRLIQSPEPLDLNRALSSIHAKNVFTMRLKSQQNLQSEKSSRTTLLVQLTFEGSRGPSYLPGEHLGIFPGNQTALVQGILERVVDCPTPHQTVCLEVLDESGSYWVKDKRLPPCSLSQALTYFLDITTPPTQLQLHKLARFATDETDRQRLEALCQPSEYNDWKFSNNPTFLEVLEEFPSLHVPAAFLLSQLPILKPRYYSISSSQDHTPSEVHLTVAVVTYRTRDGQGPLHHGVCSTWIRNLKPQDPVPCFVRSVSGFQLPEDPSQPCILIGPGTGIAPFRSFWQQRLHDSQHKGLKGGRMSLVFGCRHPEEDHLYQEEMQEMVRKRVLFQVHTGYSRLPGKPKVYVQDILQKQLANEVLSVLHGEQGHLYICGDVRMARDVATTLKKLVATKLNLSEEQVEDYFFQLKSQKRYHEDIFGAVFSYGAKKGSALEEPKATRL

[5] = test system: BV-2; experiment: Downregulation of iNOS expression in LPS-treated mouse BV2 cells at 1 to 10 uM incubated for 30 mins prior to LPS challenge measured after 6 hrs by Western blot analysis; assay type: functional, cell-based
[6] = test system: RAW264.7; experiment: Cytotoxicity against mouse RAW264.7 cells assessed as decrease in cell viability at 20 uM; assay type: cell-based; details: raw264.7, 20 µM
[7] = test system: RAW264.7; experiment: Anti-neuroinflammatory activity in mouse RAW264.7 cells assessed as inhibition of LPS-induced nitric oxide production; assay type: functional, cell-based
[8] = Reduction of SNP-induced nitrite accumulation at 5 to 10 uM after 180 mins by Griess assay
[9] = target: T1, Nitric oxide synthase, inducible (Mus musculus); experiment: Inhibition of iNOS in LPS-treated mouse BV2 cells assessed as decrease in nitrite level at 1 to 10 uM after 12 hrs by Griess assay; assay type: cell-based; details: BV-2
[10] = test system: BV-2; experiment: Downregulation of iNOS expression in LPS-treated mouse BV2 cells at 10 uM incubated for 30 mins prior to LPS challenge measured after 6 hrs by Western blot analysis; assay type: functional, cell-based

Row | SMILES | viability at 20 µM [1] | IC50 [2] | other results
1 | COC(=O)[C@]1(O)C[C@@H](O)[C@@H](OC(=O)/C=C/c2ccc(O)c(O)c2)[C@H](OC(=O)/C=C/c2ccc(O)c(O)c2)C1 | 92.2% | 24.6 µM | –
2 | O=C(/C=C\c1ccc(O)cc1)O[C@@H]1C[C@](OC(=O)/C=C/c2ccc(O)cc2)(C(=O)O)C[C@@H](O)[C@H]1O | 98.1% | 59.8 µM | –
3 | COC(=O)[C@]1(O)C[C@@H](O)[C@@H](O)[C@H](OC(=O)/C=C/c2ccc(O)c(O)c2)C1 [CHLOROGENIC ACID METHYL ESTER] | 95.3% | 12.1 µM | –
4 | COC(=O)[C@]1(O)C[C@@H](O)[C@@H](OC(=O)/C=C/c2ccc(O)cc2)[C@H](O)C1 | 108% | 45 µM | –
5 | COC(=O)[C@]1(O)C[C@@H](O)[C@@H](OC(=O)/C=C/c2ccc(O)c(O)c2)[C@H](O)C1 | 92.6% | 16.6 µM | –
6 | O=C(/C=C/c1ccc(O)c(O)c1)O[C@@H]1C[C@](OC(=O)/C=C/c2ccc(O)c(O)c2)(C(=O)O)C[C@@H](O)[C@H]1O [1,5-O-TRANS-DICAFFEOYLQUINIC ACID] | 93.7% | 22.6 µM | –
7 | COC(=O)[C@]1(O)C[C@@H](OC(=O)/C=C/c2ccc(O)c(O)c2)[C@@H](O)[C@H](OC(=O)/C=C/c2ccc(O)c(O)c2)C1 | 91.1% | 9.04 µM | Activity [3]: Active; inhibition [4]: Active; Activity [5]: inactive; Activity [6]: Non-toxic; IC50 [7]: 42.9 µM
8 | CO[C@@H](CC(=O)O[C@@H]1C[C@](OC(=O)/C=C/c2ccc(O)c(O)c2)(C(=O)O)C[C@@H](O)[C@H]1O)c1ccc(O)c(O)c1 | 93.2% | 4.66 µM | Activity [8]: Active; inhibition [9]: Active; Activity [6]: Non-toxic; Activity [10]: Active; IC50 [7]: 175 µM
9 | O=C(/C=C/c1ccc(O)cc1)O[C@@H]1C[C@](OC(=O)/C=C/c2ccc(O)c(O)c2)(C(=O)O)C[C@@H](O)[C@H]1O | 94.3% | 23.5 µM | –
10 | CO[C@@H](CC(=O)O[C@@]1(C(=O)O)C[C@@H](O)[C@@H](O)[C@H](OC(=O)/C=C/c2ccc(O)c(O)c2)C1)c1ccc(O)c(O)c1 | 90.9% | 12.5 µM | –
11 | COC(=O)[C@]1(O)C[C@@H](O)[C@@H](O)[C@H](OC(=O)/C=C\c2ccc(O)c(O)c2)C1 | 90.6% | 17 µM | –
12 | COC(=O)[C@@]1(O)C[C@@H](O)[C@H](OC(=O)/C=C/c2ccc(O)c(O)c2)[C@H](OC(=O)/C=C/c2ccc(O)c(O)c2)C1 [3,4-O-TRANS-CAFFEOYLQUINIC ACID METHYL ESTER] | 96.8% | 20.2 µM | –
13 | CNC(=N)NCCC[C@H](N)C(=O)O [TILARGININE] | 103% | – | –
14 | COC(=O)[C@]1(O)C[C@@H](O)[C@@H](O)[C@H](OC(=O)/C=C\c2ccc(O)cc2)C1 | 109% | 86.4 µM | –
15 | O=C(/C=C\c1ccc(O)cc1)O[C@@H]1C[C@](OC(=O)/C=C\c2ccc(O)cc2)(C(=O)O)C[C@@H](O)[C@H]1O | 96% | 52.8 µM | –
16 | COC(=O)[C@]1(O)C[C@@H](O)[C@@H](O)[C@H](OC(=O)/C=C/c2ccc(O)cc2)C1 | 109% | 82 µM | –
